Measured values taken from the NIST ThermoML archive (doi:10.1016/j.tca.2018.11.018).
Numbers after ± are expanded uncertainties.

Experiment: xn = mol fraction of the nth substance listed
Conditions: 100 kPa, Liquid; for viscosity: Falling or rolling sphere viscometry; for mass density: Vibrating tube method

CC[N+]1(C)CCCCC1.[Br-] [N-ethyl-N-methylpiperidinium bromide] + O
Conditions | mass density [kg/m3] | viscosity [mPa·s]
298.15 K, x1 = 0.02 | 1042.3 ± 1 | 1.263 ± 0.076
298.15 K, x1 = 0.046 | 1088.3 ± 1 | 2.026 ± 0.12
298.15 K, x1 = 0.065 | 1116.9 ± 1 | 2.813 ± 0.17
298.15 K, x1 = 0.085 | 1141.4 ± 1 | 3.992 ± 0.24
298.15 K, x1 = 0.11 | 1167.4 ± 1.1 | 6.16 ± 0.37
298.15 K, x1 = 0.14 | 1192.2 ± 1.1 | 11.35 ± 0.69
298.15 K, x1 = 0.18 | 1217.8 ± 1.1 | 20.55 ± 1.2
298.15 K, x1 = 0.221 | 1237.8 ± 1.2 | 36.06 ± 2.2
298.15 K, x1 = 0.27 | 1255.2 ± 1.3 | 68.76 ± 4.2
298.15 K, x1 = 0.321 | 1268.9 ± 1.5 | 135.3 ± 9.2
303.15 K, x1 = 0.02 | 1040.5 ± 1 | 1.124 ± 0.068
303.15 K, x1 = 0.046 | 1085.9 ± 1 | 1.783 ± 0.11
303.15 K, x1 = 0.065 | 1114.2 ± 1 | 2.444 ± 0.15
303.15 K, x1 = 0.085 | 1138.5 ± 1 | 3.419 ± 0.21
303.15 K, x1 = 0.11 | 1164.3 ± 1.1 | 5.175 ± 0.31
303.15 K, x1 = 0.14 | 1189 ± 1.1 | 9.449 ± 0.57
303.15 K, x1 = 0.18 | 1214.4 ± 1.1 | 16.67 ± 1
303.15 K, x1 = 0.221 | 1234.4 ± 1.2 | 28.38 ± 1.7
303.15 K, x1 = 0.27 | 1251.8 ± 1.3 | 51.92 ± 3.1
303.15 K, x1 = 0.321 | 1265.5 ± 1.4 | 98.65 ± 6.3
308.15 K, x1 = 0.02 | 1038.6 ± 1 | 1.011 ± 0.061
308.15 K, x1 = 0.046 | 1083.5 ± 1 | 1.59 ± 0.096
308.15 K, x1 = 0.065 | 1111.5 ± 1 | 2.147 ± 0.13
308.15 K, x1 = 0.085 | 1135.5 ± 1 | 2.967 ± 0.18
308.15 K, x1 = 0.11 | 1161.2 ± 1.1 | 4.41 ± 0.27
308.15 K, x1 = 0.14 | 1185.7 ± 1.1 | 7.861 ± 0.48
308.15 K, x1 = 0.18 | 1211 ± 1.1 | 13.6 ± 0.82
308.15 K, x1 = 0.221 | 1230.9 ± 1.2 | 22.48 ± 1.4
308.15 K, x1 = 0.27 | 1248.4 ± 1.3 | 39.91 ± 2.4
308.15 K, x1 = 0.321 | 1262.1 ± 1.4 | 73.14 ± 4.5
313.15 K, x1 = 0.02 | 1036.4 ± 1 | 0.915 ± 0.055
313.15 K, x1 = 0.046 | 1081.1 ± 1 | 1.421 ± 0.086
313.15 K, x1 = 0.065 | 1108.7 ± 1 | 1.901 ± 0.12
313.15 K, x1 = 0.085 | 1132.5 ± 1 | 2.595 ± 0.16
313.15 K, x1 = 0.11 | 1158 ± 1 | 3.8 ± 0.23
313.15 K, x1 = 0.14 | 1182.3 ± 1.1 | 6.584 ± 0.4
313.15 K, x1 = 0.18 | 1207.5 ± 1.1 | 11.17 ± 0.68
313.15 K, x1 = 0.221 | 1227.4 ± 1.2 | 18.06 ± 1.1
313.15 K, x1 = 0.27 | 1244.9 ± 1.3 | 31 ± 1.9
313.15 K, x1 = 0.321 | 1258.6 ± 1.4 | 54.37 ± 3.3
318.15 K, x1 = 0.02 | 1034.1 ± 1 | 0.834 ± 0.05
318.15 K, x1 = 0.046 | 1078.7 ± 1 | 1.279 ± 0.077
318.15 K, x1 = 0.065 | 1105.9 ± 1 | 1.697 ± 0.1
318.15 K, x1 = 0.085 | 1129.5 ± 1 | 2.287 ± 0.14
318.15 K, x1 = 0.11 | 1154.8 ± 1 | 3.301 ± 0.2
318.15 K, x1 = 0.14 | 1178.9 ± 1.1 | 5.574 ± 0.34
318.15 K, x1 = 0.18 | 1204.1 ± 1.1 | 9.251 ± 0.56
318.15 K, x1 = 0.221 | 1223.9 ± 1.2 | 14.7 ± 0.89
318.15 K, x1 = 0.27 | 1241.4 ± 1.3 | 24.63 ± 1.5
318.15 K, x1 = 0.321 | 1255.2 ± 1.4 | 42.07 ± 2.6
323.15 K, x1 = 0.02 | 1031.6 ± 1 | 0.767 ± 0.046
323.15 K, x1 = 0.046 | 1075.9 ± 1 | 1.162 ± 0.07
323.15 K, x1 = 0.065 | 1102.9 ± 1 | 1.522 ± 0.092
323.15 K, x1 = 0.085 | 1126.3 ± 1 | 2.045 ± 0.12
323.15 K, x1 = 0.11 | 1151.5 ± 1 | 2.895 ± 0.17
323.15 K, x1 = 0.14 | 1175.5 ± 1.1 | 4.742 ± 0.29
323.15 K, x1 = 0.18 | 1200.6 ± 1.1 | 7.76 ± 0.47
323.15 K, x1 = 0.221 | 1220.4 ± 1.2 | 12.15 ± 0.74
323.15 K, x1 = 0.27 | 1237.9 ± 1.3 | 19.99 ± 1.2
323.15 K, x1 = 0.321 | 1251.8 ± 1.4 | 33.03 ± 2
328.15 K, x1 = 0.02 | 1029 ± 1 | 0.709 ± 0.043
328.15 K, x1 = 0.046 | 1073 ± 1 | 1.063 ± 0.064
328.15 K, x1 = 0.065 | 1099.9 ± 1 | 1.378 ± 0.083
328.15 K, x1 = 0.085 | 1123.1 ± 1 | 1.83 ± 0.11
328.15 K, x1 = 0.11 | 1148.1 ± 1 | 2.563 ± 0.15
328.15 K, x1 = 0.14 | 1172.1 ± 1.1 | 4.087 ± 0.25
328.15 K, x1 = 0.18 | 1197 ± 1.1 | 6.616 ± 0.4
328.15 K, x1 = 0.221 | 1216.9 ± 1.2 | 10.15 ± 0.62
328.15 K, x1 = 0.27 | 1234.4 ± 1.3 | 16.44 ± 1
328.15 K, x1 = 0.321 | 1248.3 ± 1.4 | 26.76 ± 1.6
333.15 K, x1 = 0.02 | 1026.3 ± 1 | 0.656 ± 0.04
333.15 K, x1 = 0.046 | 1070.2 ± 1 | 0.976 ± 0.059
333.15 K, x1 = 0.065 | 1096.7 ± 1 | 1.249 ± 0.076
333.15 K, x1 = 0.085 | 1119.9 ± 1 | 1.65 ± 0.1
333.15 K, x1 = 0.11 | 1144.7 ± 1 | 2.285 ± 0.14
333.15 K, x1 = 0.14 | 1168.6 ± 1.1 | 3.555 ± 0.21
333.15 K, x1 = 0.18 | 1193.5 ± 1.1 | 5.691 ± 0.34
333.15 K, x1 = 0.221 | 1213.4 ± 1.2 | 8.658 ± 0.53
333.15 K, x1 = 0.27 | 1230.9 ± 1.3 | 13.81 ± 0.84
333.15 K, x1 = 0.321 | 1244.9 ± 1.4 | 21.95 ± 1.3
338.15 K, x1 = 0.02 | 1023.5 ± 1 | 0.616 ± 0.037
338.15 K, x1 = 0.046 | 1067.1 ± 1 | 0.9 ± 0.054
338.15 K, x1 = 0.065 | 1093.5 ± 1 | 1.142 ± 0.069
338.15 K, x1 = 0.085 | 1116.9 ± 1 | 1.495 ± 0.09
338.15 K, x1 = 0.11 | 1141.4 ± 1 | 2.046 ± 0.12
338.15 K, x1 = 0.14 | 1165.1 ± 1.1 | 3.13 ± 0.19
338.15 K, x1 = 0.18 | 1189.9 ± 1.1 | 4.925 ± 0.3
338.15 K, x1 = 0.221 | 1209.8 ± 1.2 | 7.418 ± 0.45
338.15 K, x1 = 0.27 | 1227.4 ± 1.3 | 11.66 ± 0.71
338.15 K, x1 = 0.321 | 1241.4 ± 1.4 | 18.17 ± 1.1
343.15 K, x1 = 0.02 | 1020.4 ± 1 | 0.579 ± 0.035
343.15 K, x1 = 0.046 | 1063.9 ± 1 | 0.835 ± 0.05
343.15 K, x1 = 0.065 | 1090.3 ± 1 | 1.05 ± 0.064
343.15 K, x1 = 0.085 | 1113.8 ± 1 | 1.363 ± 0.082
343.15 K, x1 = 0.11 | 1137.9 ± 1 | 1.845 ± 0.11
343.15 K, x1 = 0.14 | 1161.5 ± 1.1 | 2.616 ± 0.16
343.15 K, x1 = 0.18 | 1186.3 ± 1.1 | 4.343 ± 0.26
343.15 K, x1 = 0.221 | 1206.2 ± 1.2 | 6.433 ± 0.39
343.15 K, x1 = 0.27 | 1223.9 ± 1.3 | 10.03 ± 0.61
343.15 K, x1 = 0.321 | 1238 ± 1.4 | 15.35 ± 0.94
348.15 K, x1 = 0.02 | 1016.6 ± 1 | 0.548 ± 0.033
348.15 K, x1 = 0.046 | 1060.6 ± 1 | 0.778 ± 0.047
348.15 K, x1 = 0.065 | 1087 ± 1 | 0.967 ± 0.058
348.15 K, x1 = 0.085 | 1110.3 ± 1 | 1.247 ± 0.075
348.15 K, x1 = 0.11 | 1134.3 ± 1 | 1.67 ± 0.1
348.15 K, x1 = 0.14 | 1157.9 ± 1.1 | 2.352 ± 0.14
348.15 K, x1 = 0.18 | 1182.7 ± 1.1 | 3.798 ± 0.23
348.15 K, x1 = 0.221 | 1202.6 ± 1.2 | 5.613 ± 0.34
348.15 K, x1 = 0.27 | 1220.3 ± 1.3 | 8.668 ± 0.53
348.15 K, x1 = 0.321 | 1234.5 ± 1.4 | 13.11 ± 0.8
